# From patent US10433545B2, “Non-streaking durable composition for cleaning and disinfecting hard surfaces” (Ecolab USA Inc., priority 2016, dated 2019)
# What was measured:
# feline calicivirus = assay: FCV (feline calicivirus, norovirus surrogate) log reduction; format: cell-based; details: surfactant combined with Bardac 2050 quat
# Method: Variations of this formula were then tested against feline calicivirus, which is norovirus surrogate. Bardac 2050 by itself was the control.
# Quat was tested with each surfactant alone to determine which surfactant was interfering. Also, Lonzabac 12 was added to one formula. Streak testing was performed on each formula. FCV (feline calicivirus) testing was done in 400 ppm hard water with a 10 minute contact time and soil.
# [1] = list of typical surfactants; CMC measured in water at 20 to 25 degrees C; cited from earlier work
# S. aureus = assay: OECD method log reduction, S. aureus; format: cell-based, Staphylococcus aureus; details: 400 ppm water; 750 ppm quat
# Method: The germicidal test methods referred to are those approved by the EPA for germicide registration in force at the time of the patent application. Staphylococcus aureus is the ATCC 6538 strain.
# Formulas with passable or ok glass performance and formulas of interest were then tested for antimicrobial efficacy.
# Four log reduction is considered passing for this method.
Structure (SMILES),"FCV kill, result in words (feline calicivirus)",CMC (ppm) [1] [ppm],OECD log reduction Staph (S. aureus) [log]
"CCCCC(CC)CO[C@H]1O[C@H](CO)[C@@H](O)[C@H](O)[C@H]1O (stereo partly drawn) [AG 6202, a-D-Glucopyranoside, 2-ethylhexyl]",does not,14000,
"CCCCCCCCCCCC[N+](C)(C)[O-] [Barlox 12, Lauryldimethyl amine oxide]",interferes with FCV kill,,
"CCCCCCCCCC[N+](C)(C)CCCCCCCCCC.[Cl-] [Bardac 2250, Didecyldimethylammoniumchloride]",,,1.6
